From the supplement of paper PMC11997997

How the values were obtained:
[1] = system: Mycobacterium tuberculosis CDC1551 (intracellular, in murine BMDM); test: area under intracellular growth-inhibition dose-response curve (AUC (% inhibition x dose, relative)); higher = more potent; conditions: duration: 6 days; dose range: 0.13-80 uM, 8 points
Method in brief: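 Luciferase-expressing M. tuberculosis CDC1551 was used at multiplicity of infection 1 for 1 h to infect primary murine bone marrow-derived macrophages in 384-well opaque plates, 24 h after seeding. Treatment followed for 6 days with an 8-dose, 2.5-fold series at final concentrations of 80–0.13 μM. GraphPad Prism was used to calculate the area under the growth-inhibition dose–response curve from Bright-Glo luciferin readings normalised to a reference drug control and the lowest-concentration wells.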

[2] = system: murine bone marrow-derived macrophages; test: area under cytotoxicity dose-response curve (AUC (% cytotoxicity x dose, relative)); higher = more cytotoxic; conditions: duration: 6 days; dose range: 0.13-80 uM, 8 points
Method in brief: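 Cytotoxicity is given as the area under the dose–response curve, computed in GraphPad Prism version 10. Primary murine bone marrow-derived macrophages in opaque 384-well plates received an 8-point, 2.5-fold dilution series (final 80–0.13 μM) for 6 days at 37 °C in 5% CO2. Viability was measured by Promega's CellTiter-Glo luminescence assay, with percent cytotoxicity normalised to vehicle and positive control wells.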

Structure (SMILES)	area under intracellular growth-inhibition dose-response curve [1]	area under cytotoxicity dose-response curve [2]
CC(C)C(=O)N1CCN(c2ccc(NC(=O)c3ccc([N+](=O)[O-])o3)cc2)CC1	64.2	84.2
CC(C)C(=O)N1CCN(c2ccc(NC(=O)c3ccc([N+](=O)[O-])o3)cc2Cl)CC1	109	79.8
Br.CCCc1cc(-c2nc(-c3ccc(Cl)cc3)cs2)ccn1	163	78.3
CCC(=O)N(C)CCc1cc2c(c(OC)c1/C=N/NC(=O)c1ccncc1)OCO2	127	48.4
Cc1ccc(C[n+]2c(-c3ccc(C)cc3)cc(-c3ccc(C)cc3)cc2-c2ccc(C)cc2)cc1.[O-][Cl+3]([O-])([O-])[O-]	253	59.3
CCN1/C(=C/c2ccc3cc(C)ccc3[n+]2CC)Sc2ccccc21.[I-]	144	176
CN(C)[C@@H]1C(=O)C(C(N)=O)=C(O)[C@@]2(O)C(=O)C3=C(O)c4c(O)ccc(Cl)c4[C@@H](O)[C@H]3C[C@@H]12.Cl	253	< 0
CNC[C@@H](Cc1ccccc1)NC[C@@H](CC1CCCCC1)NCCCc1ccccc1	104	61.5
Cn1c(/C=C/c2ccc([N+](=O)[O-])o2)nc2ccccc2c1=O	85.8	53.2
COc1cc2c(cc1OC)CN(C(=O)c1ccc([N+](=O)[O-])o1)CC2	101	37
Cc1nnc(SCC2=C(C(=O)O)N3C(=O)C(NC(=O)Cn4ncc(Cl)c4C)C3SC2)s1 (centres undefined)	245	66.2
O=C(CSc1cccc[n+]1[O-])Nc1ccccc1Oc1ccccc1	39.4	53.2
CC(C)/N=c1\cc2n(-c3ccc(Cl)cc3)c3ccccc3nc-2cc1Nc1ccc(Cl)cc1	208	73.5
CCCCCCn1c(=O)c(C(=O)Nc2cnccn2)c(O)c2ccccc21	56.4	< 0
CC(=O)c1ccc(NC(=S)Nc2ccc(N3CCOCC3)cc2)cc1.Cl	260	40.4
O=C(CSc1nc2ccccc2nc1N1CCOCC1)N1CCN(c2ccccc2)CC1	199	22.9
COc1cc(/C=N/NC(=O)c2ccncc2)ccc1OC(=O)c1cccc(F)c1	111	88.7
CCc1ccc(C(=O)NCc2cccs2)s1	220	17.6
CC(NC(=O)c1ccc(F)cc1)c1ccc(F)cc1 (centres undefined)	230	31.2
CC1=CCCC(C)(C)C1/C=C/C(C)=N/NC(=O)c1ccncc1 (centres undefined)	247	< 0
Cc1c(Cl)c(C(F)F)nn1CC(=O)NC1C(=O)N2C(C(=O)O)=C(CSc3nnnn3C)CSC12 (centres undefined)	151	121
Cc1ccccc1OCCC(=O)NNC(=O)c1ccccc1F	106	17.3
CCNC(=S)N/N=C(\C)c1ccc(N2CCOCC2)cc1	164	43.5
O=C(c1ccc(Cl)c(Cl)c1)N1CCCC1	86.7	52.5
Br.CCCc1cc(-c2nc(-c3ccc(C)cc3)cs2)ccn1	80.7	45.6
NC(=S)N/N=C1\CCOc2ccc(F)cc21	232	< 0

Structure (SMILES)	area under intracellular growth-inhibition dose-response curve [1]	area under cytotoxicity dose-response curve [2]
C=CCOc1ccc(/C=N\NC(N)=S)cc1	276	10.8
CC(=O)c1cccc(NC(=O)NC2CCCCCCC2)c1	244	36.2
CN(C)C1C(=O)C(C(N)=O)=C(O)C2(O)C(O)=C3C(=O)c4c(O)cccc4C(C)(O)C3C(O)C12 (centres undefined)	166	22.3
Fc1ccc(C2=CC(c3cccs3)n3nnnc3N2)cc1 (centres undefined)	216	< 0
O=C(C=Cc1cccc(Cl)c1)c1ccccc1	252	6.7
NC(=S)N/N=C/C=C/c1ccccc1	243	82.2
NC(=S)N/N=C/c1ccc2c(c1)OCCO2	263	< 0
COc1ccc(-c2n(C)c3ccccc3[n+]2CC(=O)OC2CC(C)CCC2C(C)C)cc1.[Cl-] (centres undefined)	140	117
COc1ccc(CNc2nc3nc(C)c(Cl)c(O)n3n2)cc1	186	9.37
O=C(NC(=S)Nc1ccc(-c2nc3ncccc3o2)cc1)c1ccccc1F	138	< 0
O=C(Nc1cccc(Cl)c1)NC1CC2CCC1C2 (centres undefined)	232	31.1
CN(Cc1ccccc1)C(=O)CCc1ccccc1	181	< 0
O=C(NC1CCCCCCC1)c1ccco1	234	3.98
Cl.c1ccc(CN2CCC3(CCCc4ccccc43)CC2)cc1	160	45.5
CCOC1OC(O)=C(Cl)/C1=N\c1ccccc1C (centres undefined)	231	< 0
COc1c(N2C[C@@H]3CCCN[C@@H]3C2)c(F)cc2c(=O)c(C(=O)O)cn(C3CC3)c12.Cl	269	62.8
C/C(Cn1nnc([N+](=O)[O-])n1)=N\NC(=O)c1ccncc1	271	< 0
CCc1nnc(NS(=O)(=O)c2ccc(N/C=C3/C(=O)NC(=O)N(c4ccccc4)C3=O)cc2)s1	31	38
CCOC(=O)N=Nc1c2nc3nonc3[nH]c-2c2ccccc12	136	186
CC1CCc2c(nc3sc4c(c3c2N)CCCC4)C1 (centres undefined)	206	60.7
O=C(NNC(=O)c1cc2ccccc2o1)c1ccncc1	135	11.1
O=C(NCC1CCCCC1)c1ccc(Br)o1	274	< 0
CC[N+](C)(CC)CCCCOc1ccc2c(c1)C(=O)c1cc(OCCCC[N+](C)(CC)CC)ccc1-2.[I-]	175	51.3
CCc1ccc(NC(=S)Nc2ccc3c[nH]nc3c2)cc1	237	33.8
CC[C@@H](C)[C@@H]1CN([C@@H](CN2CCC[C@H]2CN2C(N)=NC[C@H]2C(C)C)C(C)C)C(=N)N1CCCC1CCCC1	191	32.4
Cc1[nH]c2ccccc2c1C(=O)C(C)OC(=O)c1ccc([N+](=O)[O-])o1 (centres undefined)	3.96	< 0
